melting point [°C]	Compound
257 to 259	O=c1cc(-c2ccccc2)c2cc(Cl)ccc2[nH]1
182 to 184	O=c1[nH]c(-c2ccccc2Cl)cs1
95 to 97	O=C(O)c1cc(Cl)ccc1OC1CCCC1
91 to 93	Cc1cccc(COc2cccc(CC(=O)O)c2)c1
182 to 184	O=C1C(=O)N(Cc2ccc(Br)cc2)c2ccccc21
250 to 252	CS(=O)(=O)Nc1cc(C(=O)O)ccc1F
70 to 72	CS(=O)(=O)NCc1cccc(CN)c1
160 to 162	Nc1ccc(C(=O)O)c(I)c1
115 to 117	CN(C)S(=O)(=O)c1ccc(NC(=O)CCl)cc1
223 to 225	CN1CCCCC/C1=N/S(=O)(=O)c1ccc(N)cc1
81 to 83	CSc1cccc(NC(=O)C(C)Cl)c1 (stereo unspecified)
135 to 137	COc1ccc(S(N)(=O)=O)cc1OC
70 to 72	O=S(=O)(Cl)Cc1c(Cl)cccc1Cl
62 to 64	O=[N+]([O-])c1ccc(Cl)cc1I
64 to 66	CC(=O)c1cccc(-c2ccncc2)c1
134 to 136	COc1cc(Br)ccc1C(N)=O
234 to 236	Cc1ccc(C(=O)O)cc1NS(=O)(=O)c1ccc(F)cc1
89 to 91	O=C(O)C1CC1c1cccc(Cl)c1 (stereo unspecified)
190 to 192	O=C(O)CCn1c(=O)oc2cc(S(=O)(=O)N3CCCC3)ccc21

melting point [°C]	Compound
128 to 130	NNC(=O)CCc1ccc(S(=O)(=O)N2CCOCC2)cc1
198 to 200	O=C(c1ccc(CCl)cc1)N1CCCC1
163 to 165	CC(C)(C(=O)O)C(O)c1cccc(O)c1 (stereo unspecified)
139 to 141	O=C(O)c1cc(S(=O)(=O)Cl)c(Br)o1
111 to 113	CNS(=O)(=O)c1ccc(CN)cc1
197 to 199	Cc1cc(Br)cc(Cl)c1OCC(=O)O
128 to 130	O=C(O)c1sccc1S(=O)(=O)N1CCCC1
59 to 61	O=C(O)CCn1ccc2cc(Cl)ccc21
62 to 64	Cc1ccc([N+](=O)[O-])c(C)c1S(=O)(=O)Cl
214 to 216	O=C(O)c1ccc(Cl)c(S(=O)(=O)Nc2ccc(Cl)cc2)c1
169 to 171	NC(=O)CN(Cc1ccccc1)c1cccc(N)c1
215 to 217	CC1CCCC(C)N1S(=O)(=O)c1ccc(N)cc1 (stereo unspecified)
135 to 137	CC(=O)c1ccc(-c2ccc(Cl)c(Cl)c2)cc1
136 to 138	NS(=O)(=O)C#Cc1ccccc1
135 to 140	Nc1cc(Cl)c(-c2cc(Cl)c(N)cc2Cl)cc1Cl
55 to 57	Clc1nc(-c2ccccc2)cs1
187 to 189	O=C1CCc2ccc(F)cc2N1
93 to 95	CCN(CC)S(=O)(=O)c1ccc2nc(CCl)[nH]c2c1

Second part, the molecule before the results:

Compound	melting point [°C]
Cc1nc2cc(N)ccc2n1C	164 to 166
CCc1c(C(=O)CCl)[nH]c(C)c1C(C)=O	143 to 145
COC(=O)c1sc(N)nc1C(C)(C)C	158 to 160
Cn1cc(NC(=O)OCC(F)(F)F)ccc1=O	208 to 210
Nc1cc(F)c([N+](=O)[O-])cc1C(=O)O	249 to 251
O=C(O)c1ccc(NC(=O)C2CC2)cc1	274 to 276
CC1CN(c2ccc(C(=O)O)cn2)CC(C)O1 (stereo unspecified)	219 to 221
Cc1nn(-c2ccc(Br)cc2)cc1C(=O)O	229 to 231
CSC(=NS(C)(=O)=O)SC	88 to 90
O=C1CN(/C=C/c2ccccc2)C(=O)N1	224 to 226
NNc1ccc(-c2ccccc2)nn1	144 to 146
Cn1ccnc1SCc1ccccc1[N+](=O)[O-]	86 to 88
Cn1c(-c2ccccc2)cc2cc[nH]c(=O)c21	201 to 203
CC(O)CCNc1cc2nc[nH]c(=O)c2cc1N (stereo unspecified)	209 to 211
CCN(CC)S(=O)(=O)c1ccc(C(=O)NCC(=O)O)cc1	143 to 145
CCOC(=O)c1c(CCCO)cnc2nc(C(=O)OC)nn12	86 to 88
NC(=O)Nc1ccccc1[N+](=O)[O-]	186 to 188
Cc1cc(C=O)c(C)n1-c1cccc(C(F)(F)F)c1	103 to 105
Cc1cc(C(=O)O)sc1-c1ccc(F)cc1	206 to 208
N#Cc1cc(CO)ccn1	109 to 111
Cc1cc(C=O)c(C)n1-c1ccc(F)c(F)c1F	89 to 91
O=C(O)C1Cc2ccccc2CN1C(=O)c1ccccc1 (stereo unspecified)	141 to 143

Compound	melting point [°C]
ClCc1cc2c(cc1Br)OCCCO2	75 to 77
O=C1CCCN1CO	79 to 81
O=C(O)c1ccccc1OCc1ccc(F)cc1	80 to 84
CCCN(CCC)C(=O)c1ccc(N)cc1	81 to 83
COc1ccc(-c2nc(C(=O)O)cs2)cc1OC	204 to 206
O=C(O)c1nc(-c2ccccc2)oc1-c1ccccc1	193 to 195
O=C(O)c1ccc(SC(F)F)cc1	154 to 156
COc1ccc(C)cc1NCCC(=O)O	77 to 79
Cn1c(S)nc2sccc2c1=O	317 to 319
Cc1ccc(-c2nnco2)cc1N	136 to 138
CCCC(NC(=O)c1ccccc1)C(N)=S (stereo unspecified)	202 to 204
COc1cc(C)nc(Cl)n1	35 to 37
COc1ccccc1C(O)c1ccccn1 (stereo unspecified)	57 to 59
CCCC(C)(NC(=O)OCc1ccccc1)C(=O)O (stereo unspecified)	103 to 105
Nc1ccccc1C(=O)NCCCN1CCOCC1	194 to 198
Cc1ccc(C(=O)O)cc1NC(=O)Cc1ccncc1	294 to 296
Nc1cc([N+](=O)[O-])ccn1	96 to 98
NCCc1ccc(CO)cc1	35 to 37
O=C(CCl)Nc1nc(-c2ccc(F)cc2)cs1	142 to 144
CC(=O)c1ccc(NC(=O)CI)cc1	139 to 141
O=c1[nH]c(-c2cccnc2)cs1	225 to 227
COC(=O)C(=O)C=C(C)OC	37 to 39

Compound	melting point [°C]
Cc1ccc(-c2nc(C)c(C(C)N)s2)cc1 (stereo unspecified)	57 to 59
CCOc1ccccc1OCC(=O)O	44 to 46
Clc1ccc(Cn2cncn2)cn1	61 to 63
Cc1nc(N2CCCCC2)sc1C=O	113 to 115
O=C(O)c1cc(-c2cccc(Br)c2)nc2ccccc12	215 to 217
OCCc1c[nH]nc1C(F)(F)F	90 to 92
CNCC(O)COc1ccc2c(c1)OCO2 (stereo unspecified)	93 to 95
N#Cc1ccc(-c2ccccc2)[nH]c1=O	297 to 299
CCOC(=O)CSc1nnc(-c2ccco2)o1	59 to 61
CN1CC(=O)NC(=O)C1	99 to 101
Nc1cncc(Br)c1	65 to 69
Cc1nc(Cl)c2cc[nH]c2n1	199 to 201
Cc1nn(-c2ccccc2)c(C(F)(F)Cl)c1C(=O)O	144 to 146
O=C(Nc1ccc(C(F)(F)F)cc1)OCC(F)(F)F	102 to 104
CCOc1ccccc1OCC(=O)NN	94 to 96
O=C(O)CCN1C(=O)C(=Cc2ccc(F)cc2)SC1=S	135 to 137
Cc1ccc(C2(C(=O)O)CCOCC2)cc1	189 to 191
O=C(O)C1CCCN(C(=O)c2ccccn2)C1 (stereo unspecified)	167 to 169
C/C(=N\O)c1scnc1C	144 to 146
CC(C)n1ncc2cc(N)cnc21	85 to 87

Source: a melting point compilation (Tetko et al.)
